Columns and labels:
[1] = tested on: scPTZ-induced seizure in mice; assay: subcutaneous PTZ-induced seizure test (scPTZ); assay type: in vivo; details: for mortality in scPTZ test: 20 mg/kg of HHL-6 or 7.5 mg/kg of diazepam, PTZ-control 100% mortality; for protection against scPTZ induced mortality / Onset of jerks / Rearing & falling: diazepam 7.5 mg/kg; for protection against scPTZ induced mortality: mortality within 24 hours; for Onset of jerks / Rearing & falling: i.p. 30 min before s.c. PTZ 90 mg/kg, mean of 6 mice; for Onset of jerks: PTZ-control 190; for Rearing & falling: PTZ-control 640
Protocol: (§1) Albino male NMRI mice weighing 20-25 grams were used. The animals were housed under standard laboratory conditions i.e. 12:12 hr light: dark cycle, temperature (21±2° C.) and air humidity controlled environment. Food and water were provided ad libitum. All experiments were carried out in accordance to the International Guidelines for the Use and Care of Laboratory Animals and approved by Scientific Advisory Committee on Animal Care, Use, and Standards of our institute.
The anticonvulsant effect of HHL-6 using scPTZ test was evaluated by administering 20 mg/kg dose to groups of 6 mice at least 30 min before subcutaneous administration of convulsive dose of PTZ (90 mg/kg). After PTZ administration, animals were isolated and observed for an hour for the presence or absence of different types of seizure patterns. Latency to PTZ-induced threshold seizures was also calculated. The latency to threshold seizure is defined as the interval between the time of the PTZ-injection and the occurrence of first episode of threshold seizure. Protection of testing material against PTZ-induced mortality within 24 hours was also evaluated. In all experiments, diazepam (7.5 mg/kg i.p) was used as positive control.
In Table 3, the HHL-6 and diazepam were injected intraperitoneally 30 min before the administration of subcutaneous pentylenetetrazole (90 mg/kg) in their respective groups. Values are presented as mean for the duration of tonic seizure for 6 mice.

[2] = tested on: scPTZ-induced kindling in mice; assay: PTZ-induced kindling test (Racine's scale seizure score); assay type: in vivo
Protocol: as §1
Sub-convulsive dose (50 mg/kg) of PTZ was given subcutaneously to all groups (n=12/group) except normal control after every 48 hours. In normal control group, instead of PTZ, saline was used. The drug control groups received daily administration of diazepam (7.5 mg/kg). The test group was treated with the HHL-6 (20 mg/kg) once daily. Racine's scale was used to score the seizure activity such as stage 0: no response; stage 1: ear and facial twitching; stage 2: convulsive wave through the body; stage 3: myoclonic jerks, stage 4: clonic-tonic convulsions, turnover into side position; stage 5: generalized clonic-tonic seizures, loss of postural control. Animals showing score 4 or 5 were considered to be fully kindled.

[3] = observed 1-2 hr after treatment
Description: Animals were transferred into individual cages the day before the experiments to allow them to acclimatize to the new environment. […] For behavioral studies, blind-testing was employed i.e., the experimenter conducting this study was blinded to the given treatment.

[4] = HHL-6 20 mg/kg; 30 min and 1 h after injection
Protocol: This was examined by Traction test. The forepaws of a mouse were placed on a small twisted wire rigidly supported above a bench top. Normal mice grasped the wire with forepaws and when allowed to hang free, placed at least one hind foot on the wire within 5 seconds. Inability to put up at least one hind foot constituted failure to the traction. The test was conducted at 30 min and 1 h after the injection of saline, diazepam or HHL-6.

[5] = tested on: c-Fos protein expression; assay: c-Fos immunohistochemistry of brain sections of PTZ-kindled mice (ImageJ densitometry); assay type: in vivo; details: for Fluorescence intensity of c-Fos, Amygdala / Fluorescence intensity of c-Fos, Thalamus / Fluorescence intensity of c-Fos, Hippocampus / Fluorescence intensity of c-Fos, Cortex: PTZ-kindled mice, HHL-6 20 mg/kg, DZP 7.5 mg/kg, mean ± S.E.M.; for Fluorescence intensity of c-Fos, Amygdala: normal control 12.23 ± 2.9, PTZ control 38.17 ± 5.08; for Fluorescence intensity of c-Fos, Thalamus: normal control 12.58 ± 1.79, PTZ control 45.36 ± 3.70; for Fluorescence intensity of c-Fos, Hippocampus: normal control 15.29 ± 2.3, PTZ control 44.27 ± 7.43; for Fluorescence intensity of c-Fos, Cortex: normal control 16.31 ± 1.24, PTZ control 40.69 ± 8.2; for c-Fos staining intensity (FIG. 4B): cortical region, kindled animals, normal control 16.31±1.24, PTZ control 40.69±8.2
Protocol: (§2) Animals were sacrificed 24 hrs after establishment of complete kindling. Cardiac perfusion with chilled PBS buffer (NaCl—8 g, KCl—0.2 g, Na2HPO4×12 H2O—2.85 g, KH2PO4—0.2 g; pH 7.4) containing heparin was performed. Whole brains were removed, post-fixed in ice-cold 2% PFA for 24 hrs at +4° C. and then placed in 30% sucrose until brain samples sank to the bottom of the container. The samples were stored at −80° C. until further processing.
Frozen brain samples were cut into […] thick sections and directly taken on poly L-lysine coated slides and kept at −20° C. overnight. The cryosections were incubated overnight at 4° C. with primary antibody i.e. purified c-Fos (4): sc-52 for c-Fos detection and BDNF (N-20): sc-546 for BDNF detection independently. This was followed by re-incubation with secondary antibody i.e. biotinylated goat anti-mouse IgG (Alexa Flour) for 1 hour at room temperature in dark. The stained sections were observed under fluorescent microscope (Nikon ECLIPSE TE2000-S, Japan). Since the specificity of the primary antibody is very critical therefore, in order to determine specificity, negative controls were also processed by eliminating the step where sections were incubated with their respective primary antibody.
Expression of c-Fos and BDNF protein observed under the fluorescent microscope was analyzed by using software ImageJ (NIH, USA). The image processing program ImageJ helps in multiple imaging system data comparisons taking density (densitometry) in consideration to analyze the images. For each image, background density was determined and subtracted; the remaining particles were considered to represent c-Fos or BDNF expression. Data were obtained from two sections per mouse (n=12 animals per group) and presented as means±S.E.M. cFos and BDNF immunoreactivity in the amygdala, cortex, dorsal hippocampus, and thalamus were centered approximately around 3.6 mm posterior to bregma. Within the hippocampus region, measurements were performed over the layer extending from sub-regions CA1-CA3.
(§3) Data is presented as mean±standard error of the mean (S.E.M.). The seizure activity was analyzed by nonparametric Mann-Whitney U tests. The immunostaining data was analyzed by one-way ANOVA with post hoc Dunnett's multiple comparison tests. Sequential differences among means were calculated at the level of P<0.05 using the SPSS version 10.

[6] = tested on: BDNF protein expression; assay: BDNF immunohistochemistry of brain sections of PTZ-kindled mice (ImageJ densitometry); assay type: in vivo; details: cortical region, kindled animals; normal control 29.53±3.9, PTZ control 57.6±13.6
Protocol: as §2
Frozen brain samples were cut into […] thick sections and directly taken on poly L-lysine coated slides and kept at −20° C. overnight. The cryosections were incubated overnight at 4° C. with primary antibody i.e. purified c-Fos (4): sc-52 for c-Fos detection and BDNF (N-20): sc-546 for BDNF detection independently. […]
Expression of c-Fos and BDNF protein observed under the fluorescent microscope was analyzed by using software ImageJ (NIH, USA). […] For each image, background density was determined and subtracted; the remaining particles were considered to represent c-Fos or BDNF expression. […]
as §3

[7] = HHL-6 20 mg/kg, PTZ 90 mg/kg s.c.
[8] = PTZ 90 mg/kg s.c., HHL-6 20 mg/kg

| SMILES | protection from jerks [1, 7] | protection from tonic fore limb and hind limb seizures [1, 7] [%] | mortality in scPTZ test ([1]; PTZ 90 mg/kg s.c.) | protection against scPTZ induced mortality [1, 8] [%] | Onset of jerks ([1]; HHL-6 20 mg/kg) [s] | Rearing & falling ([1]; HHL-6 20 mg/kg) [s] | seizure score (kindling) after treatment day 13 ([2]; HHL-6 20 mg/kg, PTZ 50 mg/kg on alternate days, 18 doses in 36 days) | seizure score (kindling) ([2]; treatment day 9 till 13, HHL-6 20 mg/kg once daily, PTZ 50 mg/kg s.c. every 48 hours, PTZ-kindled control average 4.9) | alteration in normal behavior pattern [3] | hyper-excitability or sedation [3] | muscle relaxant activity (traction test) [4] | Fluorescence intensity of c-Fos, Amygdala [5] [arbitrary unit] | Fluorescence intensity of c-Fos, Thalamus [5] [arbitrary unit] | Fluorescence intensity of c-Fos, Hippocampus [5] [arbitrary unit] | Fluorescence intensity of c-Fos, Cortex [5] [arbitrary unit] | c-Fos staining intensity (FIG. 4B) [5] | BDNF staining intensity (FIG. 5B) [6] | seizure pattern till the end of the kindling protocol ([2]; diazepam 7.5 mg/kg daily, PTZ 50 mg/kg s.c. every 48 hours) |
| --- | --- | --- | --- | --- | --- | --- | --- | --- | --- | --- | --- | --- | --- | --- | --- | --- | --- | --- |
| CCCCCC(=O)NCCc1c(C(C)=O)[nH]c2c(OC)cccc12 [HHL-6, 2-acetyl-3-(2-hexanoylamidoethyl)-7-methoxyindole] | unable to provide protection from jerks | 100 | Mortality was not demonstrated | 100 | 460 | 0 | 0 | 0.3 | did not show any alteration in their normal behavior pattern | not observed | did not observed muscle relaxant activity | 15.21 ± 2.3 | 15.58 ± 3.74 | 16.92 ± 2.75 | 18.24 ± 3.2 | 18.24±3.2 | 26.2±5.4 |  |
| CN1C(=O)CN=C(c2ccccc2)c2cc(Cl)ccc21 [diazepam, reference compound] |  |  | Mortality was not demonstrated | 100 | 0 | 0 |  |  |  |  |  | 14.94 ± 1.99 | 18.33 ± 2.19 | 20.09 ± 3.77 | 17.28 ± 3.6 | 17.28±4.6 | 31.5±7.6 | did not exhibit any seizure pattern |

Reference: patent US9272998B1, “Modulation of c-FOS and BDNF protein expression in pentylenetetrazole-kindled mice following the treatment with novel anti-epileptic compound HHL-6” (priority 2015, dated 2016)
